Literature values, collected in patent US20240325432A1, “COMPOSITION AND METHODS OF TREATMENT USING TRANSDERMAL SUPPLEMENTATION” (Xygenyx Inc., priority 2023, published 2024).

Experiments:
[1] = in vivo
[2] = tested on: wide dynamic range neurons in the ventroposterolateral nucleus of the thalamus; conditions: believed
[3] = compared to α-tocopherol = 1.0
[4] = tested on: markers of inflammation in the blood; conditions: individuals with metabolic syndrome
[5] = tested on: rheumatoid arthritis; conditions: arthritic subjects
[6] = as penetration enhancer
[7] = tested on: F2-isoprostane; conditions: 1600-3200 IU/day
[8] = even when dietary intake occurs in equal portions

HGH: hormone comprising a peptide chain that is synthesized in the pituitary gland
biological half-life [1]: 10-20 minutes

CCCCCc1cc(O)c2c(c1)OC(C)(C)C1CCC(C)=CC21 (stereo not drawn) [THC, Δ-9-tetrahydrocannabinol]
analgesic power relative to morphine [2]: ten times more powerful than morphine

Cc1cc(O)cc2c1O[C@](C)(CCC[C@H](C)CCC[C@H](C)CCCC(C)C)CC2 [δ-tocopherol]
relative biological activity [3]: 0.03 | markers of inflammation in the blood [4]: reduced markers of inflammation

C=C1CC/C=C(\C)CC[C@@H]2[C@@H]1CC2(C)C [β-caryophyllene]
swelling of joints and lymph nodes [5]: reduced swelling of joints and lymph nodes

CC(C)[C@@H]1CC[C@@H](C)C[C@H]1O [Menthol]
increase of transdermal drug uptake (factor) [6]: ≥ 10

CC12CCC(CC1)C(C)(C)O2 [eucalyptol, 1,8-epoxy-p-menthane]
increase of transdermal drug uptake (factor) [6]: more than 10

Cc1cc(O)c(C)c2c1O[C@](C)(CCC[C@H](C)CCC[C@H](C)CCCC(C)C)CC2 [β-tocopherol]
relative biological activity [3]: 0.5

Cc1c(C)c2c(c(C)c1O)CC[C@@](C)(CCC[C@H](C)CCC[C@H](C)CCCC(C)C)O2 [α-tocopherol]
blood plasma concentration of F2-isoprostane [7]: significantly lower | reduction in the development of age-related cataracts (400-500 IU in combination with 10-20 mg β-carotene and 400-500 mg vitamin C): 23% | reduction of risk of coronary disease (dietary supplementation, doses up to 400 IU/day): up to 34% | reduction of risk of developing neurodegenerative diseases (Alzheimer's Syndrome or dementia) (dietary supplementation, doses up to 400 IU/day, controlled trials): ≤ 24% | relative biological activity [3]: 1.0

Cc1c(O)cc2c(c1C)O[C@](C)(CCC[C@H](C)CCC[C@H](C)CCCC(C)C)CC2 [γ-tocopherol]
relative biological activity [3]: 0.1 | concentration in vivo relative to α-tocopherol [8]: roughly 10%
